In PMC7504215, “Copper(II) Complexes with Mixed Heterocycle Ligands as Promising Antibacterial and Antitumor Species” (Molecules, 2020):
In brackets after ≈: the same amount, converted by molar mass.

Assays:
[1] = test system: MRSA; assay: MBEC assay, micro-titer method (biofilm); type: cell-based, Staphylococcus aureus
Experimental: (§1) The antibacterial assays were performed on Gram-negative (Escherichia coli ATCC 25922, E. coli 5, Pseudomonas aeruginosa ATCC 27853, P. aeruginosa ATCC 9027) and Gram-positive (Staphylococcus aureus ATCC 25923, S. aureus ATCC 6538, MRSA (Meticillin-resistant S. aureus) 388, ATCC, American Type Culture Collection) bacterial strains. Microbial suspensions (1.5 × 10^8 CFU/mL; colony forming units (CFU)) corresponding to 0.5 McFarland density obtained from 15 to 18-h bacterial cultures developed on solid media were used. The antimicrobial activity was tested on Mueller–Hinton agar medium.
(§2) The assessment of the complexes’ influence on the microbial ability to colonize an inert substratum with the establishment of the minimal biofilm eradication concentration (MBEC) was performed by the micro-titer method, following previously described protocols. The absorbance at 490 nm was measured with an Apollo LB 911ELISA (Berthold Technologies GmbH & Co. KG, Waltham, MA, USA) reader. All experiments were performed in triplicates.

[2] = test system: S. aureus 25923; assay: MBEC assay, micro-titer method (biofilm); type: cell-based, Staphylococcus aureus
Experimental: as §1, §2

[3] = test system: S. aureus 6538; assay: MBEC assay, micro-titer method (biofilm); type: cell-based, Staphylococcus aureus
Experimental: as §1, §2

[4] = test system: E. coli 25922; assay: MIC assay, liquid medium microdilution (planktonic growth); type: cell-based, Escherichia coli
Experimental: as §1
(§3) The quantitative assay of the antimicrobial activity was performed by the liquid medium microdilution method, in 96-well multi-well plates, to establish the minimal inhibitory concentration (MIC). For this purpose, serial two-fold dilutions of the compounds ranging between 1.000 and 1.95 μg/mL were performed in a 200 μL volume of broth and each well was seeded with 50 μL microbial inoculums. Sterility control (wells containing only culture medium) and culture controls (wells containing culture medium seeded with the microbial inoculum) were used. The influence of the DMSO solvent was also quantified in a series of wells containing DMSO, diluted accordingly with the dilution scheme used for the complexes. The plates were incubated for 24 h at 37 °C, and MIC values were considered as the lowest concentration of the tested compound that inhibited the visible growth of the microbial overnight cultures.

[5] = test system: E. coli 5 ESBL; assay: as above; type: cell-based, Escherichia coli
Experimental: as §1, §3

[6] = test system: P. aeruginosa 9027; assay: as above; type: cell-based, Pseudomonas aeruginosa
Experimental: as §1, §3

[7] = test system: P. aeruginosa 27853; assay: as above; type: cell-based, Pseudomonas aeruginosa
Experimental: as §1, §3

[8] = test system: P. aeruginosa 9027; assay: MBEC assay, micro-titer method (biofilm); type: cell-based, Pseudomonas aeruginosa
Experimental: as §1, §2

[9] = test system: P. aeruginosa 27853; assay: MBEC assay, micro-titer method (biofilm); type: cell-based, Pseudomonas aeruginosa
Experimental: as §1, §2

[10] = test system: MRSA; assay: MIC assay, liquid medium microdilution (planktonic growth); type: cell-based, Staphylococcus aureus
Experimental: as §1, §3

[11] = test system: S. aureus 25923; assay: as above; type: cell-based, Staphylococcus aureus
Experimental: as §1, §3

[12] = test system: S. aureus 6538; assay: as above; type: cell-based, Staphylococcus aureus
Experimental: as §1, §3

[13] = test system: E. coli 25922; assay: MBEC assay, micro-titer method (biofilm); type: cell-based, Escherichia coli
Experimental: as §1, §2

[14] = test system: E. coli 5 ESBL; assay: MBEC assay, micro-titer method (biofilm); type: cell-based, Escherichia coli
Experimental: as §1, §2

[15] = P. aeruginosa 9027 (multi-drug-resistant), 24 h at 37 °C
[16] = P. aeruginosa 27853, 24 h at 37 °C

Molecule	MBEC value [1]	MBEC value [2]	MBEC value [3]	MIC ([4]; E. coli 25922, 24 h at 37 °C)	MIC ([5]; E. coli 5 ESBL, 24 h at 37 °C)	MIC [6, 15]	MIC [7, 16]	MBEC value [8]	MBEC value [9]	MIC ([10]; 24 h at 37 °C)	MIC ([11]; S. aureus 25923, 24 h at 37 °C)	MIC ([12]; S. aureus 6538, 24 h at 37 °C)	MBEC value [13]	MBEC value [14]	also measured
{[Cu(bpy)2(μ2OClO3)]·ClO4}n [CuBP]	0.27 mM	0.14 mM	0.14 mM	540 µM	540 µM	1090 µM	1090 µM	1.09 mM	1.09 mM	270 µM	270 µM	270 µM	0.54 mM	0.54 mM	–
O.[Cu+2].[O-][Cl+3]([O-])([O-])[O-].[O-][Cl+3]([O-])([O-])[O-].c1cnc2c(c1)ccc1cccnc12.c1cnc2c(c1)ccc1cccnc12 [CuPP, [Cu(phen)2(OH2)](ClO4)2]	0.10 mM	0.03 mM	0.03 mM	30 µM	30 µM	500 µM	500 µM	0.50 mM	0.50 mM	120 µM	30 µM	30 µM	0.10 mM	0.30 mM	–
c1ccc(-c2ccccn2)nc1 [bpy, 2,2′-bipyridine]	8.00 mM	4.00 mM	8.00 mM	–	–	–	–	4.00 mM	8.00 mM	–	–	–	8.00 mM	8.00 mM	MIC ([4]; Escherichia coli, 25922, 24 h): 4000 µM (≈ 625 µg/mL); MIC ([5]; Escherichia coli, 5ESBL, 24 h): 4000 µM (≈ 625 µg/mL); MIC ([6]; Pseudomonas aeruginosa, 9027, 24 h): 4000 µM (≈ 625 µg/mL); MIC ([7]; Pseudomonas aeruginosa, 27853, 24 h): 8000 µM (≈ 1250 µg/mL); MIC ([10]; Staphylococcus aureus, 24 h): 8000 µM (≈ 1250 µg/mL); MIC ([11]; Staphylococcus aureus, 25923, 24 h): 8000 µM (≈ 1250 µg/mL); MIC ([12]; Staphylococcus aureus, 6538, 24 h): 8000 µM (≈ 1250 µg/mL)
